Assay results as given in PMC5535261 (Journal of Medicinal Chemistry, 2017).
Values after ≈ are worked out from the molar mass of the structure shown.

Tests used:
[1] = test system: P. berghei-infected female Swiss Webster mice; details: oral; for 50% curative dose (PD50): free bases, 4 daily doses, estimated from dose–efficacy study (Table 3); for mouse survival extended compared to vehicle-treated control animals: one or two daily doses of 4 mg/kg
[2] = Mouse liver microsome stability; details: for T1/2 (min) no NADPH / half-life: mouse liver microsomes; for microsomal CLint / half-life: mouse, microsomes
[3] = physchem; details: pH 7.4
[4] = test system: W2 P. falciparum parasites; experiment: Plasmodium falciparum growth inhibition assay; details: 12f vs 2f
[5] = test system: similar models (P. berghei-infected mice); details: single dose 20 mg/kg; cited from earlier work
[6] = T1/2 (min), half-life when incubated with mouse liver microsomes

SMILES | T1/2 (min) no NADPH ([2]; no NADPH) | microsomal CLint [2] [µL/min/mg] | half-life [2, 6] [h] | also measured
CC(C)(N)CNC(=O)C[C@H]1CC[C@]2(CC1)OO[C@]1(O2)C2CC3CC(C2)CC1C3 [2a, arterolane, reference compound] | stable | – | – | 50% curative dose (PD50) [1]: ~4 mg kg^–1 day^–1; solubility kinetic [3]: 433 µM (≈ 170 µg/mL)
NC(=O)CNC(=O)C[C@H]1CC[C@]2(CC1)OO[C@]1(O2)C2CC3CC(C2)CC1C3 [2b, reference compound] | stable | – | – | –
CC(C)(CN)CNC(=O)C[C@H]1CC[C@]2(CC1)OO[C@]1(O2)C2CC3CC(C2)CC1C3 [2d, reference compound] | stable | – | – | –
NC1CCN(C(=O)C[C@H]2CC[C@]3(CC2)OO[C@]2(O3)C3CC4CC(C3)CC2C4)CC1 [2i, reference compound] | stable | – | – | –
CC(C)(N)CNC(=O)C[C@@H]1CCC[C@]2(C1)OOC1(O2)C2CC3CC(C2)CC1C3 (stereo partly drawn) [12a] | stable | 4.1 | 2.82 | 50% curative dose (PD50) [1]: ~6 mg kg^–1 day^–1; solubility kinetic [3]: 429 µM (≈ 168 µg/mL)
NC(=O)CNC(=O)C[C@@H]1CCC[C@]2(C1)OOC1(O2)C2CC3CC(C2)CC1C3 (stereo partly drawn) [12b] | stable | 18.6 | 0.622 | –
NCCNC(=O)C[C@@H]1CCC[C@]2(C1)OOC1(O2)C2CC3CC(C2)CC1C3 (stereo partly drawn) [12c] | – | 8.2 | 1.41 | mouse survival extended compared to vehicle-treated control animals [1]: 3 to 6 days; half-life ([2]; T1/2 (min) no NADPH, no NADPH): 2.27 h
CC(C)(CN)CNC(=O)C[C@@H]1CCC[C@]2(C1)OOC1(O2)C2CC3CC(C2)CC1C3 (stereo partly drawn) [12d] | stable | 10.8 | 1.07 | –
O=C(C[C@@H]1CCC[C@]2(C1)OOC1(O2)C2CC3CC(C2)CC1C3)N1CCOCC1 (stereo partly drawn) [12f] | – | – | – | fold more potent than cis-4″ regioisomer 2f (EC50, W2) [4]: 3 fold
O=C(C[C@@H]1CCC[C@]2(C1)OOC1(O2)C2CC3CC(C2)CC1C3)N1CCNCC1 (stereo partly drawn) [12g] | stable | 27.2 | 0.425 | –
NC1CCN(C(=O)C[C@@H]2CCC[C@]3(C2)OOC2(O3)C3CC4CC(C3)CC2C4)CC1 (stereo partly drawn) [12i] | stable | 8.2 | 1.41 | mouse survival extended compared to vehicle-treated control animals [1]: 3 to 6 days
c1cc([C@H]2CC[C@]3(CC2)OO[C@]2(O3)C3CC4CC(C3)CC2C4)ccc1OCCN1CCOCC1 [compound 3, artefenomel] | – | – | – | single-dose efficacy [5]: single-dose cures
